Measurements as given in US7964598B2 (The J. David Gladstone Institutes, priority 1995, dated 2011).
“And” between values parts separate entries of the source, which are not always exact repeats. Identical values can stand only once.

How the values were obtained:
B103-APP cells = assay: APP processing and Aβ production, B103-APP cells; assay type: cell-based, rat; details: lipid-free apoE, 7.5 μg/ml, 24 h, compared to medium alone
Description: Aβ production assay. Stable neuroblastoma B103 cell lines transfected with a wildtype hAPP cDNA construct (B 103-APP) were selected by growing them in Dulbecco's modified Eagle's medium (DMEM) containing 10% fetal calf serum (FBS) and 400 μg/ml G418. A cell line expressing APP at similar levels in mouse brains has been identified by RNase protection assay (RPA) and was used in the studies described below. To determine Aβ production, B103-APP cells were incubated with serum-free minimal essential medium (MEM) containing N2 supplements with or without apoE isoforms for 24 h at 37° C. After incubation, 50 μl of medium was collected and assayed for Aβ levels with an ELISA method. The cells were lysed, and cellular proteins were determined by the Lowry method. AP production was normalized to cellular protein.
Cell Culture. Rat neuroblastoma B103 cells stably expressing human wildtype APP (hAPP695wt) (Xu et al. ((1999) Proc. Natl. Acad. Sci. USA 96:7547-7552; Esposito, et al. (2004) J. Neurochem. 91:1260-1274) were generated in Dr. Lennart Mucke's laboratory at the Gladstone Institute of Neurological Disease and maintained in Dulbecco's modified Eagle's medium (DMEM) (GIBCO, Grand Island, N.Y.) containing 400 μg/ml G418, 10% fetal bovine serum, and 5% horse serum at 37° C. Twenty-four hours after plating into 48-well plates (1×10^5 cells per well), cells were washed twice with serum-free DMEM and cultured for another 24 h in DMEM containing 1% N-2 supplement (GIBCO) to induce differentiation. The cells were treated with either β-VLDL (25 μg/ml cholesterol), recombinant human apoE isoform-enriched β-VLDL (7.5 μg/ml apoE and 25 μg/ml cholesterol), or recombinant human apoE (7.5 μg/ml apoE) in fresh DMEM containing 1% N-2 supplement for an additional 24 h. In some experiments, RAP (25 nM or 1 μM) was added to the cells 1 h before apoE treatment.
In some experiments, cells were treated with lovastatin, as described but with a minor modification. Fassbender et al. (2001) Proc. Natl. Acad. Sci. USA 98:5856-5861. Briefly, cells were maintained in differentiation medium containing 4 μM lovastatin and 0.25 mM mevalonate for 24 h. After treatment for 5 min with 5 mM methyl-β-cyclodextrin, which depletes cell membrane cholesterol (Bodovitz and Klein (1996) J. Biol. Chem. 271:4436-4440; Kojro et al. (2001) Proc. Natl. Acad. Sci. USA 98:5815-5820), the cells were incubated in fresh differentiation medium containing lovastatin and mevalonate for 24 h. The conditioned medium was collected, and cellular cholesterol extracted with chloroform/methanol (Huang et al. (1994) Proc. Natl. Acad. Sci. USA 91:1834-1838) and quantitated with a kit from Abbott Laboratories (Abbott Park, Ill.).
Detection of sAPPα. Media conditioned for 24 hours were normalized by protein content and subjected to SDS/PAGE. Proteins were then transferred onto nitrocellulose membranes. The sAPPα was detected by mAb 6E10 and visualized with an enhanced chemiluminescence system (Pierce, Rockford, Ill.).
Aβ Assay. Aβ secreted into the medium was detected with a sandwich enzyme-linked immunosorbent assay (ELISA), using mAb 266 as a capturing antibody and 3D6 as a detecting antibody, as described. Johnson-Wood et al. ((1997) Proc. Natl. Acad. Sci. USA 94:1550-1555). Aβ was quantified from a standard curve (Aβ42; Bachem, Torrance, Calif.) and normalized by total cellular protein.

HSPG-deficient CHO cells = assay: Pulse chase of 125I-apoE+β-VLDL, HSPG-deficient CHO cells; assay type: cell-based, Chinese hamster
Description: (§1) Cultured cells were grown to ˜100% confluence, placed on ice, and washed twice with cold DMEM-Hepes. The cells were then incubated with ^125I-apoE+β-VLDL at 4° C. for 1 h to allow for cell-surface binding (zero time bound ligand). Cells were rinsed three times with cold F12 medium to remove unbound ligands. Prewarmed F12 medium was added; and the cells were incubated at 37° C. for the times indicated. At each point, the cells were again placed on ice, and the culture medium was collected. To 0.5 ml of medium was added 0.4 ml of 0.2% bovine serum albumin (Sigma) and 0.4 ml of 50% trichloroacetic acid (TCA). The medium was then incubated at 4° C. for 30 min and centrifuged at 3,000 rpm for 10 min. The supernatant was collected for ^125I-apoE degradation assay, and the pellet was counted as TCA-precipitable intact ^125I-apoE. The cells were washed once with cold DMEM-Hepes, incubated with 10 mM suramin on ice in a cold room for 30 min, and then dissolved in 0.1 N NaOH. Cellular radioactivity (internalized apoE) was measured with a gamma counter, and protein concentration was determined by Lowry's method.

wild-type CHO cells = assay: Pulse chase of 125I-apoE+β-VLDL, wild-type CHO cells; assay type: cell-based, Chinese hamster; details: for Total: recovery in the fractions; for bound to the cells at 4° C. (zero time): wild-type CHO cells
Description: as §1
To evaluate these possibilities, we conducted a modified A pulse-chase@ study in which CHO cells were incubated with ^125I-apoE-enriched β-VLDL for 1 h at 4° C., washed to remove unbound lipoproteins, and then warmed to 37° C. for various times to follow internalization, degradation, and retention (see Materials and Methods). At the specific times, the medium was removed for analysis of both degradation products (degraded apoE) and TCA-precipitable proteins (released intact apoE), and the cells were washed with suramin (suramin-releasable apoE) and then counted (internalized apoE).

Substance	increase of Aβ production (B103-APP cells)	bound to the cells (HSPG-deficient CHO cells)	Total (wild-type CHO cells; 30 min) [ng/mg cell protein]	Degraded (wild-type CHO cells; 30 min at 37° C.) [ng/mg cell protein]	Internalized (retained) (wild-type CHO cells; 30 min at 37° C.) [ng/mg cell protein]	Suramin-releasable (cell surface) (wild-type CHO cells; 30 min at 37° C.) [ng/mg cell protein]	TCA-precipitable (released intact) (wild-type CHO cells; 30 min at 37° C.) [ng/mg cell protein]	Total (wild-type CHO cells; 60 min) [ng/mg cell protein]	Degraded (wild-type CHO cells; 60 min at 37° C.) [ng/mg cell protein]	Internalized (retained) (wild-type CHO cells; 60 min at 37° C.) [ng/mg cell protein]	Suramin-releasable (cell surface) (wild-type CHO cells; 60 min at 37° C.) [ng/mg cell protein]	TCA-precipitable (released intact) (wild-type CHO cells; 60 min at 37° C.) [ng/mg cell protein]	Total (wild-type CHO cells; 120 min) [ng/mg cell protein]	Degraded (wild-type CHO cells; 120 min at 37° C.) [ng/mg cell protein]	Internalized (retained) (wild-type CHO cells; 120 min at 37° C.) [ng/mg cell protein]	Suramin-releasable (cell surface) (wild-type CHO cells; 120 min at 37° C.) [ng/mg cell protein]	TCA-precipitable (released intact) (wild-type CHO cells; 120 min at 37° C.) [ng/mg cell protein]	bound to the cells at 4° C. (zero time) (wild-type CHO cells)
apoE3: human apolipoprotein E3 isoform, also iodinated	30%	77 ng/mg of cell protein	399	15	157	45	182	377	34	123	39	181	367	45	78	12	232	399 ng/mg of cell protein
apoE4: human apolipoprotein E4 isoform, also iodinated	~70% and ~60%	75 ng/mg of cell protein	368	12	84	27	245	338	35	55	10	238	305	43	27	10	225	378 ng/mg of cell protein
